Assay results taken from paper PMC9785606, “Design and Synthesis of Novel Phenylahistin Derivatives Based on Co-Crystal Structures as Potent Microtubule Inhibitors for Anti-Cancer Therapy” (Marine Drugs, 2022).

Experiments:
[1] = test system: human lung cancer NCI-H460 cell line; assay: MTT cytotoxicity assay, lung cancer NCI-H460 cell line; assay type: cell-based; conditions: mean ± SD
Description: (§1) Human cancer cell lines (lung cancer NCI-H460 cell line, pancreatic cancer BxPC-3 cell line, colon cancer HT-29 cell line) were purchased from American Type Cell Culture Collection (ATCC, Manassas, VA, USA). Cells were maintained in RPMI-1640 medium supplemented with 10% (v/v) heat-inactivated fetal bovine serum, penicillin-streptomycin (100 U/mL-100 […]) at 37 °C in a humidified atmosphere (5% CO2–95% air). All tested derivatives were dissolved in 100% cell culture grade DMSO. Cells (3 × 10^3 per well) were seeded in 96-well plates for 24 h. Then, cells were treated with the tested compounds in six concentrations for 72 h. Cell viability was assessed by MTT assay. The absorbance at 490 nm was measured with a Microplate Reader (Molecular Devices, Silicon Valley, CA, USA). The data were analyzed by Origin 8.5 (OriginLab, Northampton, MA, USA).

[2] = test system: pancreatic cancer BxPC-3 cell line; assay: MTT cytotoxicity assay, pancreatic cancer BxPC-3 cell line; assay type: cell-based; conditions: Homo sapiens, 72 h, mean ± SD
Description: as §1

[3] = test system: colon cancer HT-29 cell line; assay: MTT cytotoxicity assay, colon cancer HT-29 cell line; assay type: cell-based; conditions: Homo sapiens, 72 h, mean ± SD
Description: as §1

caspase-3 = assay: Western blotting of caspase-3 expression; assay type: cell-based
Description: Western blot was performed as previously described with antibody caspase-3 (1:1000) (WB0177/WB0176) or GAPDH (1:3000) (WB0197/WB0196, Shanghai Wei-Ao Biotechnology Co., Shanghai, China). Densities of the Western blotting bands were quantified using ImageJ 19.0. (NIH, Bethesda, MD, USA).

| Structure (SMILES) | melting point [°C] | IC50 ([1]; 72 h) [nM] | IC50 ([1]; Homo sapiens, NCI-H460, 72 h) [nM] | IC50 [2] [nM] | IC50 [3] [nM] | Expression of caspase-3 vs control group and plinabulin group (caspase-3) |
| --- | --- | --- | --- | --- | --- | --- |
| Cc1c(/C=c2\[nH]c(=O)/c(=C/c3cccc(C(=O)c4ccc(F)cc4)c3)[nH]c2=O)ncn1C [15a] | 224 to 226 | 21.1 ± 1.3 | 21.1 | – | – | – |
| CCn1cnc(/C=c2\[nH]c(=O)/c(=C/c3cccc(C(=O)c4ccc(F)cc4)c3)[nH]c2=O)c1C [15d] | 227 to 229 | – | 16.9 ± 1.5 | – | – | – |
| CCCn1cnc(/C=c2\[nH]c(=O)/c(=C/c3cccc(C(=O)c4ccc(F)cc4)c3)[nH]c2=O)c1C [15g] | 214 to 216 | – | 4.93 ± 0.25 | – | – | – |
| CCCn1cnc(/C=c2\[nH]c(=O)/c(=C/c3cccc(C(=O)c4ccc(F)cc4)c3)[nH]c2=O)c1C(C)C [15i] | 200 to 202 | – | 1.67 ± 0.15 | – | – | – |
| CCCCn1cnc(/C=c2\[nH]c(=O)/c(=C/c3cccc(C(=O)c4ccc(F)cc4)c3)[nH]c2=O)c1C(C)C [15k] | 198 to 201 | – | 0.94 ± 0.11 | – | – | – |
| Cc1c(/C=c2\[nH]c(=O)/c(=C/c3cccc(C(=O)c4ccc(F)cc4)c3)[nH]c2=O)ncn1CCNC(=O)OC(C)(C)C [15l] | 189 to 191 | – | 105 ± 11.7 | – | – | – |

Continued, in another order:

| melting point [°C] | Structure (SMILES) | IC50 ([1]; 72 h) [nM] | IC50 ([1]; Homo sapiens, NCI-H460, 72 h) [nM] | IC50 [2] [nM] | IC50 [3] [nM] | Expression of caspase-3 vs control group and plinabulin group (caspase-3) |
| --- | --- | --- | --- | --- | --- | --- |
| 218 to 219 | CC(C)c1c(/C=c2\[nH]c(=O)/c(=C/c3cccc(Oc4ccc(F)cc4)c3)[nH]c2=O)ncn1C [15b] | – | 40.4 ± 0.82 | – | – | – |
| 225 to 227 | CC(C)c1c(/C=c2\[nH]c(=O)/c(=C/c3cccc(C(=O)c4ccc(F)cc4)c3)[nH]c2=O)ncn1C [15c] | – | 3.65 ± 0.18 | – | – | – |
| 195 to 198 | CCn1cnc(/C=c2\[nH]c(=O)/c(=C/c3cccc(Oc4ccc(F)cc4)c3)[nH]c2=O)c1C(C)C [15e] | – | 12.2 ± 0.27 | – | – | – |
| 234 to 236 | CCn1cnc(/C=c2\[nH]c(=O)/c(=C/c3cccc(C(=O)c4ccc(F)cc4)c3)[nH]c2=O)c1C(C)C [15f] | – | 2.01 ± 0.19 | – | – | – |
| 201 to 203 | CCCn1cnc(/C=c2\[nH]c(=O)/c(=C/c3cccc(Oc4ccc(F)cc4)c3)[nH]c2=O)c1C(C)C [15h] | – | 5.4 ± 0.15 | – | – | – |
| 203 to 204 | CCCCn1cnc(/C=c2\[nH]c(=O)/c(=C/c3cccc(Oc4ccc(F)cc4)c3)[nH]c2=O)c1C(C)C [15j] | – | 2.49 ± 0.28 | 1.13 ± 0.35 | 2.11 ± 0.09 | significantly higher |
